Data reported in ChEMBL document CHEMBL1155766, “Secondary metabolites from the roots of Astragalus zahlbruckneri” (J Nat Prod, 2001).
Calls of active or inactive are those of the source. The calls are words filed in the database; no cut-off is given here.

Target: T1, Sex hormone-binding globulin (Homo sapiens) (UniProt P04278)
T1 sequence (whole entry): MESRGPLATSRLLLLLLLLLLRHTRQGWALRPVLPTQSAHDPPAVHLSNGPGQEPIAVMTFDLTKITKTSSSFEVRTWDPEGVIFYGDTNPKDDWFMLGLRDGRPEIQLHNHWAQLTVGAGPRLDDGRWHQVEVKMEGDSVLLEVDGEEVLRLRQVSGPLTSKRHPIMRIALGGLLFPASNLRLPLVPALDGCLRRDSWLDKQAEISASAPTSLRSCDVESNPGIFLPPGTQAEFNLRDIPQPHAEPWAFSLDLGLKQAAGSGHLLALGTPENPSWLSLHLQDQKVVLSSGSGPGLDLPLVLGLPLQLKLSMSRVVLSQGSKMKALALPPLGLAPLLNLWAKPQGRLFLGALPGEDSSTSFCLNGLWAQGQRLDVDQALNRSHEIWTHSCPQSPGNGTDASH
Assay: Binding affinity to human sex hormone binding globulin

Activity: Active
SMILES: COc1cc([C@@H]2O[C@@H](c3ccc(O)c(OC)c3)[C@H](CO)[C@H]2CO)ccc1O
